From ChEMBL document CHEMBL1201862, “PubChem BioAssay data set” (2004)
Calls of active or inactive are those of the source.

Tests used:
[1] = target: Eukaryotic translation initiation factor 4H (Homo sapiens, UniProt Q15056); assay: eIF4H binding inhibition – biochemical, uHTS, fluorescence polarization, translation initiation inhibitor project, primary screen (AID 2012)
[2] = target: Polyadenylate-binding protein 1 (Homo sapiens, UniProt P11940); assay: blockers of PABP interaction with poly(A) – biochemical, fluorescence polarization, […] (AID 2014)
Cytochrome P450 2C9 = Cytochrome P450 2C9 (Homo sapiens, UniProt P11712); settings: Potency
Mu-type opioid receptor = Mu-type opioid receptor (Homo sapiens, UniProt P35372); assay: SAR Analysis of Antagonists of the MOR Receptor using an Image-Based Assay - Set 3. [Related pubchem assays (depositor defined):AID1777, AID1785, AID1786, AID1966, AID2133, AID2136, AID2284, AID2285, AID2420]; type: functional
[3] = target: T1, Kappa-type opioid receptor (Homo sapiens, UniProt P41145); assay: SAR analysis of small molecule antagonists of the kappa opioid receptor via a luminescent beta-arrestin assay - Set 6. [Related pubchem assays (depositor defined):AID1777, AID1778, AID1785, AID1786, AID1966, AID2133, AID2136, AID2285]; type: functional
[4] = target: T1, Kappa-type opioid receptor; assay: SAR analysis of small molecule antagonists of the kappa opioid receptor via a luminescent beta-arrestin assay - Set 4. [Related pubchem assays (depositor defined):AID1777, AID1778, AID1785, AID1786, AID1966, AID2133, AID2136, AID2285]; type: functional
[5] = target: Delta-type opioid receptor (Homo sapiens, UniProt P41143); assay: SAR Analysis of Antagonists of the DOR Receptor using an Image-Based Assay - Set 3. [Related pubchem assays (depositor defined):AID1777, AID1785]; type: functional;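 further: U2OS cells expressing DOR1 and beta-arrestin GFP stimulated with 100 nM SNC80; imaging of GFP-tagged beta-arrestin moving into spots after receptor activation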
[6] = target: T1, Kappa-type opioid receptor; assay: SAR analysis of Antagonists of the Kappa Opioid Receptor (KOR) using an Image-Based Assay - Set 4. [Related pubchem assays (depositor defined):AID1777, AID1785]; type: functional
[7] = Cytotoxicity screening for potential Inhibitors of Bacterial Capsule Biogenesis. [Related pubchem assays (depositor defined):AID488970]; type: functional
Estrogen receptor = target: T2, Estrogen receptor (Homo sapiens, UniProt P03372);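 further: potency for inhibiting coactivator peptide recruitment to the receptor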
T2 sequence (P03372 whole entry): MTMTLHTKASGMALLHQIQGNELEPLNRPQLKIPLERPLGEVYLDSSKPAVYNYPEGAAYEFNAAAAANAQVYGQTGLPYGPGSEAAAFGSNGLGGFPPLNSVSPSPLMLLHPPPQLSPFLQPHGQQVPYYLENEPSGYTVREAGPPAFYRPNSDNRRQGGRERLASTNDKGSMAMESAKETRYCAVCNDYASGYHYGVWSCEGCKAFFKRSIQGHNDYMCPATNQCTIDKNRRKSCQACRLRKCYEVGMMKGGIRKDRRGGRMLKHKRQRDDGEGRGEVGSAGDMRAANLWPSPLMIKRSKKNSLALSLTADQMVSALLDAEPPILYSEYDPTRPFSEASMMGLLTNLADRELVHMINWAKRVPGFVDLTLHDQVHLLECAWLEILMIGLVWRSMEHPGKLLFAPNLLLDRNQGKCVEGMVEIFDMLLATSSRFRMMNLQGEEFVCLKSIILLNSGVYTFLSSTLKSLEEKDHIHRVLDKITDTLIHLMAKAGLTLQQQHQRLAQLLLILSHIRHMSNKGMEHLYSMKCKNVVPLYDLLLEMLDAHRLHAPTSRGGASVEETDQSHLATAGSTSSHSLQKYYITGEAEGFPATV

Estrogen receptor beta [8] = target: T3, Estrogen receptor beta (Homo sapiens, UniProt Q92731);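 further: recombinant ER-beta bound to coactivator SRC1 peptide in presence of estradiol agonist; inhibitors block coactivator peptide binding and lower the FRET signal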
Estrogen receptor beta [9] = target: T3, Estrogen receptor beta; assay: blockers of SRC-3 recruitment to ERβ – biochemical, ELISA, streptavidin-HRP readout, orthogonal assay, confirmation (AID 1060)
[10] = target: Scavenger receptor class B member 1 (Mus musculus, UniProt Q61009); assay: mouse SR-BI DiI-HDL uptake blockers – ldlA[mSR-BI] cells, fluorescence, cherry pick, dose response (AID 493194); type: functional, cell-based;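 further: cellular uptake of fluorescent DiI-labeled HDL measured as cell fluorescence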
[11] = HEK-293T viability loss after treatment – luminescence, T-cell screen hits, cytotoxicity control for TCR NF-kB inhibitor project, dose response (AID 489026); type: functional, cell-based;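 further: cells exposed to compound about 14 hours before the viability readout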
[12] = target: T4, Voltage-dependent T-type calcium channel subunit alpha-1H (Homo sapiens, UniProt O95180); type: functional
HeLa = assay: viability loss in HeLa cells – cell-based, 24 h, cherry-picked samples, cytotoxicity control, dose response (AID 504726); type: functional; settings: Homo sapiens;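 further: potency for cytotoxicity as loss of luminescence signal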
ORF 73 = ORF 73 (Human herpesvirus 8, UniProt O40947); assay: KSHV LANA DNA-binding disruption – biochemical, fluorescence polarization, cherry-picked samples, dose response (AID 504725); parameters: species or system Human gammaherpesvirus 8;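 further: fluorescence polarization of a labeled DNA duplex reporting LANA DNA binding; potency is for inhibitors that block LANA binding to the DNA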
[13] = target: T4, Voltage-dependent T-type calcium channel subunit alpha-1H; assay: Inhibitors of T-Type Calcium Channels. [Related pubchem assays (depositor defined):AID449739, AID463087, AID489005, AID493041, AID504579, AID504584, AID504619, AID504628]; type: functional
[14] = target: T5, Endoribonuclease toxin MazF (Escherichia coli K-12, UniProt P0AE70); assay: activation of MazEF endoribonuclease cleavage – biochemical, fluorescence, single-stranded RNA substrate, uHTS hits, dose response (AID 588481); type: functional
T5 sequence (P0AE70 whole entry): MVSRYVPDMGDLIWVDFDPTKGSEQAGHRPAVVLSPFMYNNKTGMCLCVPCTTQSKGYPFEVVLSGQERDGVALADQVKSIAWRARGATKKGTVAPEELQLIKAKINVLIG

[15] = target: UDP-galactopyranose mutase (Mycobacterium tuberculosis, UniProt P9WIQ1); assay: Inhibitors of Mycobacterium tuberculosis UDP-galactopyranose mutase (UGM) enzyme Measured in Biochemical System Using Plate Reader - 2105-02_Inhibitor_Dose_CherryPick_Activity. [Related pubchem assays (depositor defined):AID504439]
[16] = target: T5, Endoribonuclease toxin MazF; assay: substrate-only fluorescence increase artefacts – biochemical, single-stranded RNase substrate, counter-screen for MazEF activator project, dose response (AID 588502); type: functional
[17] = target: Signal transducer and activator of transcription 3 (Homo sapiens, UniProt P40763); assay: STAT3 activation with BCL3 mRNA and toxicity – cell-based, […], BCL3 qPCR, cytotoxicity, late-stage follow-up, panel member STAT3 Activation (AID 2049)
Staphylococcus aureus = assay: Inhibitors of Bacterial Quorum Sensing Structure Activity Relationship (SAR) Analysis: Dose Response Assay. [Related pubchem assays: 700, 527 ]; type: functional, organism-based
[18] = target: T6, Nucleotide-binding oligomerization domain-containing protein 1 (Homo sapiens, UniProt Q9Y239); assay: SAR analysis of NF-kappaB dependent luciferase using DAP as an inducer - Set 2. [Related pubchem assays (depositor defined):AID1566, AID1575, AID1578, AID1579, AID1849, AID1852, AID2264]; type: functional
T6 sequence (Q9Y239 whole entry): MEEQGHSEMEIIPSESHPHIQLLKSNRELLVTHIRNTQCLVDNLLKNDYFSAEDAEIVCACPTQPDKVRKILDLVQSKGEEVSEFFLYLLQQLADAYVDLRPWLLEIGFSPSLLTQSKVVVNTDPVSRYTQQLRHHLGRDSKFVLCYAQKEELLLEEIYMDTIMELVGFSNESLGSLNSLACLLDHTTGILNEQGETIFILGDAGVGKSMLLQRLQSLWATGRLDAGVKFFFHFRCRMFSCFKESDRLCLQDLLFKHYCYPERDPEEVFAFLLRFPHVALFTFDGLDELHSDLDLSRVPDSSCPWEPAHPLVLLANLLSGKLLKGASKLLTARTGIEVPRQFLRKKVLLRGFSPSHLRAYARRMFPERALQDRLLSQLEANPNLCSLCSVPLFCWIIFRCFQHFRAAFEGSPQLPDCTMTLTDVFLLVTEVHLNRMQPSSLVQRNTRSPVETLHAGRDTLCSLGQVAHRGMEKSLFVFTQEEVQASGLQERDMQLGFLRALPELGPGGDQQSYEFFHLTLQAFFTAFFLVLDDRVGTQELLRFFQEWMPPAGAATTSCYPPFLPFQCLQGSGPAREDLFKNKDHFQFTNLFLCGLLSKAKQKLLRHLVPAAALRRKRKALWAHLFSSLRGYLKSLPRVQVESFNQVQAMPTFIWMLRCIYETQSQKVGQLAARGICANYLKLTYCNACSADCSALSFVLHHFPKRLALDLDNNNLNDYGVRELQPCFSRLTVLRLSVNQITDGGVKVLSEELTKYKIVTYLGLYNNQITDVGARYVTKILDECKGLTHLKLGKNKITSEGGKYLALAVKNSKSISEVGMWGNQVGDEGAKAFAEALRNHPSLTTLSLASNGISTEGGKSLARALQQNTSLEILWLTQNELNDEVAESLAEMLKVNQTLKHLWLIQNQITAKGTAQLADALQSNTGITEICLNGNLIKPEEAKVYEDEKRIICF

Interleukin-8 [19] = target: T7, Interleukin-8 (Homo sapiens, UniProt P10145); assay: SAR analysis of Tumor necrosis factor alpha (TNF-alpha) induced IL-8 secretion in MCF-7/NOD1 cells - Set 2. [Related pubchem assays (depositor defined):AID1575, AID2250, AID2260]; type: functional, cell-based
T7 sequence (P10145 whole entry): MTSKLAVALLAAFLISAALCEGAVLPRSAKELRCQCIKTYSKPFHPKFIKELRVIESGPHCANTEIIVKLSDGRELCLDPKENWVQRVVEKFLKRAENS

Interleukin-8 [20] = target: T7, Interleukin-8; assay: SAR analysis of GM-Tri-DAP induced IL-8 secretion in MCF-7/NOD1 cells - Set 2. [Related pubchem assays (depositor defined):AID1575, AID1578, AID2333]; type: functional, cell-based
Tumor necrosis factor = Tumor necrosis factor (Homo sapiens, UniProt P01375); assay: analog potency on TNFa NF-kB signaling – cell-based, revised, SAR follow-up (AID 2337); type: functional
[21] = target: T6, Nucleotide-binding oligomerization domain-containing protein 1; assay: blockers of NOD1 pathway activity – revised, SAR follow-up (AID 2333); type: functional
[22] = target: Nucleotide-binding oligomerization domain-containing protein 2 (Homo sapiens, UniProt Q9HC29); assay: PubChem AID 2334; type: functional
HEK293 = assay: cells; settings: Homo sapiens;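 further: cells exposed to compound for 14 hours overnight before viability readout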
[23] = target: Cyclin-dependent kinase 5/CDK5 activator 1 (Homo sapiens, UniProt Q00535); assay: blockade of human CDK5 activity – biochemical, cherry-picked samples, set 2, dose response (AID 504545)
[24] = target: Cystic fibrosis transmembrane conductance regulator/Golgi-associated PDZ and coiled-coil motif-containing protein (Homo sapiens, UniProt P13569+Q9HD26); assay: potency against CAL PDZ-peptide interaction – biochemical, fluorescence polarization, Cerulean-tagged CAL PDZ, cherry-picks, dose response (AID 504773)
Nonstructural protein 1 = Nonstructural protein 1 (Influenza A virus, UniProt Q194T2); type: functional, Influenza A virus (A/California/07/2009(H1N1))
Keap1/Nrf2 = Keap1/Nrf2 (Homo sapiens, UniProt Q14145); assay: disruptors of Keap1 binding to Nrf2 peptide – biochemical, fluorescence polarization, cherry-picked samples, dose response (AID 588683)

T1 sequence (P41145 whole entry): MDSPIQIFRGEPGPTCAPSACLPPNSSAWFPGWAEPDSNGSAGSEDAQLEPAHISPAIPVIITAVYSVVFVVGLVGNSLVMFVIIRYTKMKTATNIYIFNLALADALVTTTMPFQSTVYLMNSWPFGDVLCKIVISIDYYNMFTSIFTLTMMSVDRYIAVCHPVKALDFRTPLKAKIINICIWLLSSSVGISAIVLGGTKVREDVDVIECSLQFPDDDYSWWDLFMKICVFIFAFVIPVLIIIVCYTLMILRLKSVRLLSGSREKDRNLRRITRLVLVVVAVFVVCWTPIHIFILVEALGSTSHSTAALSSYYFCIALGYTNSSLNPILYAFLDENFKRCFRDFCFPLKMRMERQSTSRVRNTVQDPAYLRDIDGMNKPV
Sequence of ORF 73 (O40947 whole entry): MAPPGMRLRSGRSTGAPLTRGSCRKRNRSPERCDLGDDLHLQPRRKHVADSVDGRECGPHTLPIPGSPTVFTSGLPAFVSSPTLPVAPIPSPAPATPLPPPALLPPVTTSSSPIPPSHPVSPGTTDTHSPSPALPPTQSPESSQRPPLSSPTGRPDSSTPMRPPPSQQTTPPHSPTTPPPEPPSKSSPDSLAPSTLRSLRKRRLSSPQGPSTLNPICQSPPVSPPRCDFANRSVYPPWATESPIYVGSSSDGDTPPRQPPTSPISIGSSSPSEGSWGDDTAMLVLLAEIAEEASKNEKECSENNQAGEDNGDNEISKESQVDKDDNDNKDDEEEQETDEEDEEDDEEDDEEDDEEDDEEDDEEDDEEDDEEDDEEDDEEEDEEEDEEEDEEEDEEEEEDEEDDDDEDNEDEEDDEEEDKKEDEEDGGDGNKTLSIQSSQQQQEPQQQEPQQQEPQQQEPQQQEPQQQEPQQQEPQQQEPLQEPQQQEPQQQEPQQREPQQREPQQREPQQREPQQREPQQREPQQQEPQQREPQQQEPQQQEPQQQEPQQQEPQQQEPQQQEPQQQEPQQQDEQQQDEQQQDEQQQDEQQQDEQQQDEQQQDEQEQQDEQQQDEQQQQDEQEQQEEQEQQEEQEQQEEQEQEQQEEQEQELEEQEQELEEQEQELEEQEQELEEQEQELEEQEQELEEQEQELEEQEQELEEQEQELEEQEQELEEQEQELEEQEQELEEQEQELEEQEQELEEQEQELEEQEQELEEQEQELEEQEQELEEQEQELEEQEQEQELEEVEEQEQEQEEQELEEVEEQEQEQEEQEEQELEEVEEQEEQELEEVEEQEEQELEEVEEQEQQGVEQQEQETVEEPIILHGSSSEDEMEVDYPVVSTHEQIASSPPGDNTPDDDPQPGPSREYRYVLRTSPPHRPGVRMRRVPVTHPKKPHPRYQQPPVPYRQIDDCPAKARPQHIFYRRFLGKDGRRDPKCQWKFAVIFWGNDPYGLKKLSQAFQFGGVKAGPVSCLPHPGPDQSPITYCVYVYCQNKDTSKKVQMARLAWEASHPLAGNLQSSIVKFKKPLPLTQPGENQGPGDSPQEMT
Sequence of UDP-galactopyranose mutase (P9WIQ1 whole entry): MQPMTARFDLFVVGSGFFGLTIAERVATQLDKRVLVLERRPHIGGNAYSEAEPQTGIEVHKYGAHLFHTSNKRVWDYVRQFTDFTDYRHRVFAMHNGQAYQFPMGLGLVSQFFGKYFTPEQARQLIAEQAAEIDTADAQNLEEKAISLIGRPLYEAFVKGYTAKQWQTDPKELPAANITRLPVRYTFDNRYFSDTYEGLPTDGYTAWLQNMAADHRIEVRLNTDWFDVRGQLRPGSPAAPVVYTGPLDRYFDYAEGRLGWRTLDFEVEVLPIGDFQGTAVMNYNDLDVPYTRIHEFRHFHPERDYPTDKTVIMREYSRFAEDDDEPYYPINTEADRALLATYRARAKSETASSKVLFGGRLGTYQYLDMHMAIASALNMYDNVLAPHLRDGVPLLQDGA
T3 sequence (Q92731 whole entry): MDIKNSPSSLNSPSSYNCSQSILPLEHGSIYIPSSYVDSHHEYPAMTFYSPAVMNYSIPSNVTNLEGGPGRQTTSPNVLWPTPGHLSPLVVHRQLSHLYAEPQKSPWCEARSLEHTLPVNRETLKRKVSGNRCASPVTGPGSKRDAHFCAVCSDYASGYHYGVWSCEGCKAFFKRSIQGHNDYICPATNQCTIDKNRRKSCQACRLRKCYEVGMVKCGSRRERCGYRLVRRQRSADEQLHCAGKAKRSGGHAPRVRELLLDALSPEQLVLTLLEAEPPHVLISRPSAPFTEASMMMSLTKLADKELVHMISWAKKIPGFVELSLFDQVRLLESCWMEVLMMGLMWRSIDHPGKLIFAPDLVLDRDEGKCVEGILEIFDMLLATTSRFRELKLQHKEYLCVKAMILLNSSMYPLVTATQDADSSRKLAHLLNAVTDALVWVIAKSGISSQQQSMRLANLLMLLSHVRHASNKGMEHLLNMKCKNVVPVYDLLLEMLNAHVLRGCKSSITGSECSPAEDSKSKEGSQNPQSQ
T4 sequence (O95180 whole entry): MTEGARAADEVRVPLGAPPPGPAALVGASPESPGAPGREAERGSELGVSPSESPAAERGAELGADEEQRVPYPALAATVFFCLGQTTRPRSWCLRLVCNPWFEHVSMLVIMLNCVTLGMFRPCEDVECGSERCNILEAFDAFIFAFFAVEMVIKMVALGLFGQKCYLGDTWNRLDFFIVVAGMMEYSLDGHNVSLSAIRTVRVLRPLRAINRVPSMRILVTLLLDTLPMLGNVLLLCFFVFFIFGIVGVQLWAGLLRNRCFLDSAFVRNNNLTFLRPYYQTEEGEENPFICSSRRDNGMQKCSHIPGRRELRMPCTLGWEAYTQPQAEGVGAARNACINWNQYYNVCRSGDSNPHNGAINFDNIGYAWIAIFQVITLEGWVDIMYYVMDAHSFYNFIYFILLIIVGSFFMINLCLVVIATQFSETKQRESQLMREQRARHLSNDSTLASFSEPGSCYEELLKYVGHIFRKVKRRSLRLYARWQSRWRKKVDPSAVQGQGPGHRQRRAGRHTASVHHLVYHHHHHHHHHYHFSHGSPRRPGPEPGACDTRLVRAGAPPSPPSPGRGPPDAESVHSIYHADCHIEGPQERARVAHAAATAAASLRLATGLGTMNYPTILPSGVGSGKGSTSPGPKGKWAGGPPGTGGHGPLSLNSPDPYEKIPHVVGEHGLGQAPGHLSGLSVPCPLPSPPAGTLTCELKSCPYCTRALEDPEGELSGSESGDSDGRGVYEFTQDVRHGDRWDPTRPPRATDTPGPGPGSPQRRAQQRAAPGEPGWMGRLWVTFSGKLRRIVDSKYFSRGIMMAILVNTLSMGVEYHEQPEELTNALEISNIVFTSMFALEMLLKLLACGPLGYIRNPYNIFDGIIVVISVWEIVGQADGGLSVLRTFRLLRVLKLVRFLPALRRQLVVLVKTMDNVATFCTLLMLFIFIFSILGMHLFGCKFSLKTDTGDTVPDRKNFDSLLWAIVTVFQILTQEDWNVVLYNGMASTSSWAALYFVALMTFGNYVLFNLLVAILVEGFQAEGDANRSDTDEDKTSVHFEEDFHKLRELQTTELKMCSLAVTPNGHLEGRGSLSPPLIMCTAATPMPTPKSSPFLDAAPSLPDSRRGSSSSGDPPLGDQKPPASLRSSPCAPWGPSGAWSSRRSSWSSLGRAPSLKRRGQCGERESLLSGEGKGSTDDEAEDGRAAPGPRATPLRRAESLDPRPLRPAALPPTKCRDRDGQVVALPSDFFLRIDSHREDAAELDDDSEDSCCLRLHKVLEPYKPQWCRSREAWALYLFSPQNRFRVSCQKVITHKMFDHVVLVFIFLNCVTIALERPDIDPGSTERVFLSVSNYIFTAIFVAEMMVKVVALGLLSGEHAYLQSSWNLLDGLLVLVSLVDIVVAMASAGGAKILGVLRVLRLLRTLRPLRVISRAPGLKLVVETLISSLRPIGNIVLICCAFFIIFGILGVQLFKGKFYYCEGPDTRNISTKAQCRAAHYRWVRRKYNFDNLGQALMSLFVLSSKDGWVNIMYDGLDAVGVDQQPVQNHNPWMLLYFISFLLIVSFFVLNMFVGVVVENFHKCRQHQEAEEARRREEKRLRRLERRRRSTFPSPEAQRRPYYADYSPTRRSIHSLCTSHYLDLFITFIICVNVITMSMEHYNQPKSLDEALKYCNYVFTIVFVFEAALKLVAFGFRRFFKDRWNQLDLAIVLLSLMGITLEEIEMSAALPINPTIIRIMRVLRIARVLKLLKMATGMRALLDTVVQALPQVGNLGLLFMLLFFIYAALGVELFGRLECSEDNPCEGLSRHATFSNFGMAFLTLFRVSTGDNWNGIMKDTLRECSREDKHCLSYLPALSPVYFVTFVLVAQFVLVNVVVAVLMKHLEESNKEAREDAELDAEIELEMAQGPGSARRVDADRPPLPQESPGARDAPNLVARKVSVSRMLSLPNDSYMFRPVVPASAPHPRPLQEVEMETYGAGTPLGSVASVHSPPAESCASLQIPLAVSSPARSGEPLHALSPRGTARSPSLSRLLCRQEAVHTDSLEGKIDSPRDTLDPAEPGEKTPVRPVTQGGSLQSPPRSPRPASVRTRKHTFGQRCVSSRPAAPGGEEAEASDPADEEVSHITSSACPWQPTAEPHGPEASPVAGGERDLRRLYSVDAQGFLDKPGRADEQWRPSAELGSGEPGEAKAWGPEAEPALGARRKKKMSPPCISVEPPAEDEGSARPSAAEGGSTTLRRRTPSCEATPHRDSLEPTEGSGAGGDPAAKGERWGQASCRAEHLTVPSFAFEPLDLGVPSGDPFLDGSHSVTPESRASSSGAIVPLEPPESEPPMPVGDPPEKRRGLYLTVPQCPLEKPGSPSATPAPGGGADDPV

SMILES: CCOc1ccc2nc(SCC(=O)NC(=O)NCc3ccco3)[nH]c2c1
- IC50 [1]: 13.3 µM (active)
- IC50 [2]: 62.3 µM (active)

SMILES: CCCCCC[C@H]1C(=O)O[C@@H](C)[C@H](NC(=O)c2cccc(NC=O)c2O)C(=O)O[C@@H](C)[C@@H]1OC(=O)CC(C)C
- AC50 (Cytochrome P450 2C9): 31.6 µM (inconclusive)

SMILES: CC(C)N(CCNC(=O)c1ccc(CNS(=O)(=O)c2ccc(-c3ccccc3)cc2)cc1)Cc1ccccc1
- IC50 (Mu-type opioid receptor): > 32 µM (inactive)
- IC50 [3]: > 20 µM (inactive)
- IC50 [4]: 1.33 µM (active)
- IC50 [5]: > 32 µM (inactive)
- IC50 [6]: 432 nM (active)

SMILES: O=C(NCc1cc([N+](=O)[O-])ccc1O)c1cccnc1Sc1ccccc1
- CC50 [7]: > 100 µM (active)

SMILES: Cc1c(C(=O)OCc2ccccc2)[nH]c2c1C(=O)CC(c1ccco1)C2 (configuration not stated)
- IC50 (Estrogen receptor): 23 µM (active)
- IC50 (Estrogen receptor beta [8]): 15.1 µM (active)
- IC50 (Estrogen receptor beta [9]): 9.51 µM (not active)
- AC50 [10]: 258 nM (active)
- IC50 [11]: > 80 µM (inactive)

SMILES: Nc1c(C(=O)Nc2ccccc2F)sc2nc(Cc3ccccc3)cc(C(F)(F)F)c12
- EC50 [12]: 2.71 µM (active)
- AC50 (HeLa): 95.9 µM (active)
- AC50 (ORF 73): 16.1 µM (active)
- EC50 [13]: 1.9 µM (active)
- EC50 [14]: 17.4 µM (active)
- AC50 [15]: 98.6 µM (active)
- EC50 [16]: > 99 µM (inactive)

SMILES: COc1cc(NC(=O)c2cc(C)on2)c(OC)cc1Cl
- EC50 [17]: 6.98 µM (active)

SMILES: CCOC(=O)c1c(C)oc2cc(Br)c(O)c(Br)c12
- IC50 (Staphylococcus aureus): 779 nM (active)

SMILES: Nc1nc2ccccc2n1CCOc1ccc(Cl)cc1
- IC50 [18]: > 25 µM (inactive)
- IC50 (Interleukin-8 [19]): > 25 µM (inactive)
- IC50 (Interleukin-8 [20]): 8.6 µM (active)
- IC50 (Tumor necrosis factor): > 20 µM (inactive)
- IC50 [21]: 12.7 µM (active)
- IC50 [22]: > 20 µM (inactive)
- IC50 (HEK293): > 20 µM (inactive)

SMILES: COc1ccc2nc3c(cc2c1)c(NC(=O)C1CCCO1)nn3CC(C)C (configuration not stated)
- AC50 [23]: 31.2 µM (active)

SMILES: CCNc1ccc2noc3c2c1C(=O)c1ccccc1-3
- AC50 [24]: 4.08 µM (active)
- AC50 (HeLa): 42.9 µM (active)
- AC50 (ORF 73): 1.03 µM (active)
- IC50 (Nonstructural protein 1): 62 µM (active)
- AC50 [15]: 0.609 µM (active)
- AC50 (Keap1/Nrf2): 866 nM (active)
